Source: patent US20230339835A1, “2,3,5-TRIMETHYL-6-NONYLCYCLOHEXA-2,5-DIENE-1,4-DIONE FOR SUPPRESSING AND TREATING ALPHA-SYNUCLEINOPATHIES, TAUOPATHIES, AND OTHER DISORDERS” (PTC THERAPEUTICS, INC., priority 2018, published 2023)

Legend:
[1] = system: AD patient fibroblasts AG04402; assay: Rescue of AD patient fibroblasts from BSO plus iron-induced oxidative stress, AG04402; type: cell-based; settings: Homo sapiens, Fibroblast
Description: (§1) An initial screen was performed to identify the effectiveness of compounds for the amelioration of PD and AD. Test samples and solvent controls were tested for their ability to rescue PD and AD fibroblasts stressed by addition of L-buthionine-(S,R)-sulfoximine (BSO, a specific inhibitor of GSH synthetase) plus iron (e.g. iron citrate), in a similar manner as that described in Jauslin et al., Hum. Mol. Genet. 11(24):3055 (2002), Jauslin et al., FASEB J. 17:1972-4 (2003), and International Patent Application WO 2004/003565. This specific BSO-mediated cell death was prevented or ameliorated by administration of compounds described herein.
(§2) The AD experiments were performed as follows. PD experiments were performed in a similar manner; certain specific conditions are noted below in Table 1A.
(§3) MEM (a medium enriched in amino acids and vitamins) and Medium 199 (M199) with Earle's Balanced Salts (EBS), without phenol red, were purchased from Invitrogen. Fetal Calf Serum was obtained from Corning. […]
(§4) 100 microliters of Calcein AM (1 microM) in PBS+Ca+Mg was then added to each well. […] After that time fluorescence (excitation/emission wavelengths of 485 nm and 525 nm, respectively) was read on a Spectramax fluorescence reader. Data were analyzed using standard four-parameter curve fit algorithms (XLFit or Prism) to determine the EC50 concentration for each compound.

[2] = system: AD patient fibroblasts ND41001; assay: Rescue of AD patient fibroblasts from BSO plus iron-induced oxidative stress, ND41001; type: cell-based; settings: Homo sapiens, Fibroblast
Description: as §1, §2, §3, §4

[3] = system: AD patient fibroblasts ND34730; assay: Rescue of AD patient fibroblasts from BSO plus iron-induced oxidative stress, ND34730; type: cell-based; settings: Homo sapiens, Fibroblast
Description: as §1, §2, §3, §4

[4] = system: C57Bl/6 mice, MPTP-induced model of PD; assay: Mouse MPTP model of Parkinson's Disease, open field locomotor assay; type: in vivo; settings: 300 mg/kg PO QD Day -2 to Day 7, MPTP 60 mg/kg, Day 7
From the text: Animals. Species: Mouse. Strain: C57Bl/6. Source of Animals: Charles River. Age: 6 to 7 weeks. Sex: Male. Randomization: Animals were assigned randomly to treatment groups. Blinding of Study: Experimenters were blinded to the experimental treatments
Housing and Feeding. Acclimation/Conditioning: Not less than three days. Housing: Mice were housed on a 12 hr light/dark cycle (lights on 6:00 AM) No more than 4 mice per cage. Ventilated cage rack system. Diet: Standard rodent chow and water ad libitum.
Design Parameters. Route(s) of administration: PO. Dose Volume: PO: 5 mL/kg. Formulation(s): formulated by Melior according to directions from BioElectron. Vehicle-sesame oil (Spectrum Chemical, NF Catalog #SE130, CAS #8008-74-0). Dose Levels: 300 mg/kg. Dose Frequency: QD starting Day −2 (MPTP=Day 0) and until Day 7. Study duration: 11 days. Pretreatment time (up to 2 hrs): For Day 0 (MPTP Day): 30 min, Pretreatment time for Open Field Assay/Locomotor Activity (OFA/LMA) assay: 1 hr. Number of Groups: 3. Number of animals per group: 10. Total number of animals: 30 (in the study), 42 animals total (To ensure a proper power analysis of at least 10 animals/group, for all groups receiving MPTP, 4 additional animals were added to mitigate study impacts if there were MPTP-induced fatalities).
MPTP Treatment. MPTP was formulated in phosphate buffered saline and administered to mice three times at a dose of 20 mg/kg (1 mg/mL delivered at 20 mL/kg) at two-hour intervals (final dose of MPTP=60 mg/kg).
Locomotor activity. One day prior (baseline) and on Day 7 after MPTP administration (Day (−1) and Day 7), mice were monitored for various aspects of locomotor function using a fully automated open-field apparatus (Med-Associates, Inc). The apparatus consisted of a 10.75″×10.75″ arena enclosed in a sound-attenuated box, equipped with the fan and house light. […]
Data analysis. Data were averaged and are expressed as the average±SEM.
Data were analyzed by one-way ANOVA followed by a post-hoc tests. p-values of less than 0.05 were considered to be statistically significant from control.

[5] = Iron citrate (50 μM) + BSO (50 μM)
[6] = Iron citrate (100 μM) + BSO (25 μM)

## CCCCCCCCCC1=C(C)C(=O)C(C)=C(C)C1=O [Compound C9, 2,3,5-trimethyl-6-nonylcyclohexa-2,5-diene-1,4-dione]
[1]; Iron citrate (100 μM) + BSO (100 μM)
  EC50: 5 nM
[1]; Iron citrate (200 μM) + BSO (100 μM)
  EC50: 12 nM
[2]; [5]
  EC50: 13 nM
[2]; [6]
  EC50: 17 nM
[3]; [5]
  EC50: 15 nM
[3]; [6]
  EC50: 24 nM
[4]; MPTP+Vehicle vs. MPTP+C9 p<0.001
  open field locomotor assay (vertical time): restored vertical time
[4]; MPTP+Vehicle vs. MPTP+C9 p<0.01
  open field locomotor assay (vertical counts): restored vertical counts
